Measured values reported in article PMC10931682, “A Combination of Library Screening and Rational Mutagenesis Expands the Available Color Palette of the Smallest Fluorogen-Activating Protein Tag nanoFAST” (International Journal of Molecular Sciences, 2024).
Substitutions are numbered along the chain they refer to.

Legend:
[1] = biological target: T1, nanoFAST (Halorhodospira halophila, UniProt P16113, Q41K/E46Q/C69G/S72T/A84S/Y94W/T95A/F96I/D97P/Y98T/Q99S/M100R/T101G/M109L/S117R); test: spectrofluorometric titration, plate reader; assay type: binding; settings: PBS pH 7.4, 25 °C, 0.10 µM protein; non-covalent fluorogen
T1 construct: gene pyp; FAST (engineered PYP) lacking the first 27 residues, 98 aa; C-terminal tag of three glycines and six histidines; E. coli BL21(DE3), Ni purification
T1 sequence (P16113 28-125 Q41K/E46Q/C69G/S72T/A84S/Y94W/T95A/F96I/D97P/Y98T/Q99S/M100R/T101G/M109L/S117R): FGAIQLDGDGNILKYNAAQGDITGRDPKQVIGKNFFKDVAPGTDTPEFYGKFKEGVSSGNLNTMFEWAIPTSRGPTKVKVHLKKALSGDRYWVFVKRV
Text: spectrofluorometric titration, plate reader on nanoFAST

[2] = biological target: T2, nanoFAST (Halorhodospira halophila, UniProt P16113, C69G/Y94W/T95M/F96I/D97P/Y98T/Q99S/M100R/T101G); test: fluorescence enhancement screen, plate reader; assay type: binding; settings: PBS pH 7.4, 10 µM fluorogen, 1 µM protein
T2 construct: gene pyp; FAST (engineered PYP) lacking the first 27 residues, 98 aa; C-terminal tag of three glycines and six histidines; E. coli BL21(DE3), Ni purification
T2 sequence (P16113 28-125 C69G/Y94W/T95M/F96I/D97P/Y98T/Q99S/M100R/T101G): T1 sequence (P16113 28-125 Q41K/E46Q/C69G/S72T/A84S/Y94W/T95A/F96I/D97P/Y98T/Q99S/M100R/T101G/M109L/S117R) with K14Q, Q19E, T45S, S57A, A68M, L82M, R90S

Row | SMILES | Kd [1] | fluorescence enhancement screen, plate reader [2]
1 | Cc1cc(/C=C2\SC(=S)NC2=O)c(C)cc1O [HBR-2,5-DM] | 0.5 ± 0.16 µM | 
2 | COc1cc(/C=C2\SC(=S)NC2=O)c(OC)cc1O [HBR-DOM2, 2,5-dimethoxy-4-hydroxy-arylidene-rhodanine] | 0.13 ± 0.01 µM | significant decrease in fluorescence enhancement with the previously proposed fluorogen of the nanoFAST protein
3 | COc1cc(/C=C2\SC(=S)NC2=O)cc(OC)c1O [HBR-DOM] | 1.69 ± 0.32 µM | 
